Laboratory results published in patent US11090319B2, “Therapeutic uses of pharmaceutical compositions comprising cyclic boronic acid ester derivatives” (Melinta Subsidiary Corp., priority 2010, dated 2021).

System: strains expressing KPC alone or in combination with additional beta-lactamases
Test: microbe, parasite or virus in culture
Assay type: cell-based
[1] = Klebsiella pneumoniae KP 1004, KPC-2, Compound 5 10 mg/L
[2] = Klebsiella pneumoniae KP 1008, KPC-2, Compound 5 0.31 mg/L
[3] = Klebsiella pneumoniae KP 1008, KPC-2, Compound 5 0.625 mg/L
[4] = Klebsiella pneumoniae KP 1008, KPC-2, Compound 5 […]
[5] = Klebsiella pneumoniae KP1082, KPC-2 SHV-1, Compound 5 0.31 mg/L
[6] = Klebsiella pneumoniae KP1082, KPC-2 SHV-1, Compound 5 0.625 mg/L
[7] = Klebsiella pneumoniae KP1082, KPC-2 SHV-1, Compound 5 5 mg/L
[8] = Klebsiella pneumoniae KP1082, KPC-2 SHV-1, Compound 5 10 mg/L
[9] = Klebsiella pneumoniae KP1082, KPC-2 SHV-1, Compound 5 […]
[10] = Klebsiella pneumoniae KP1083, KPC-3, SHV-1, TEM-1, Compound 5 10 mg/L
[11] = Klebsiella pneumoniae KP1083, KPC-3, SHV-1, TEM-1, Compound 5 […]
[12] = Klebsiella pneumoniae KP1084, KPC-3, SHV-11, TEM-1, Compound 5 5 mg/L
[13] = Klebsiella pneumoniae KP1084, KPC-3, SHV-11, TEM-1, Compound 5 10 mg/L
[14] = Klebsiella pneumoniae KP 1087, KPC-2, CTX-M-15, SHV-11, TEM-1, Compound 5 0.31 mg/L
[15] = Klebsiella pneumoniae KP 1087, KPC-2, CTX-M-15, SHV-11, TEM-1, Compound 5 0.625 mg/L
[16] = Klebsiella pneumoniae KP 1087, KPC-2, CTX-M-15, SHV-11, TEM-1, Compound 5 5 mg/L
[17] = Klebsiella pneumoniae KP 1087, KPC-2, CTX-M-15, SHV-11, TEM-1, Compound 5 10 mg/L
[18] = Klebsiella pneumoniae KP1088, KPC-3, SHV-11, TEM-1, Compound 5 0.31 mg/L
[19] = Klebsiella pneumoniae KP1088, KPC-3, SHV-11, TEM-1, Compound 5 0.625 mg/L
[20] = Klebsiella pneumoniae KP1088, KPC-3, SHV-11, TEM-1, Compound 5 5 mg/L
[21] = Klebsiella pneumoniae KP1088, KPC-3, SHV-11, TEM-1, Compound 5 10 mg/L

## O=C(O)C[C@@H]1CC[C@H](NC(=O)Cc2cccs2)B(O)O1 [Compound 5, 2-((3R,6S)-2-hydroxy-3-(2-(thiophen-2-yl)acetamido)-1,2-oxaborinan-6-yl)acetic acid]
Klebsiella pneumoniae KP 1004, KPC-2, Compound 5 5 mg/L
  MIC of Ertapenem: X (MIC of less than 0.5 mg/L)
[1]
  MIC of Biapenem: X (MIC of less than 0.5 mg/L)
  MIC of Doripenem: X (MIC of less than 0.5 mg/L)
  MIC of Ertapenem: X (MIC of less than 0.5 mg/L)
Klebsiella pneumoniae KP 1004, KPC-2, Compound 5 […]
  MIC of Biapenem: X (MIC of less than 0.5 mg/L)
[2]
  MIC of Biapenem: X (MIC of less than 0.5 mg/L)
  MIC of Doripenem: X (MIC of less than 0.5 mg/L)
  MIC of Ertapenem: X (MIC of less than 0.5 mg/L)
[3]
  MIC of Biapenem: X (MIC of less than 0.5 mg/L)
  MIC of Doripenem: X (MIC of less than 0.5 mg/L)
  MIC of Ertapenem: X (MIC of less than 0.5 mg/L)
[4]
  MIC of Biapenem: X (MIC of less than 0.5 mg/L)
  MIC of Doripenem: X (MIC of less than 0.5 mg/L)
  MIC of Ertapenem: X (MIC of less than 0.5 mg/L)
[5]
  MIC of Biapenem: X (MIC of less than 0.5 mg/L)
  MIC of Doripenem: X (MIC of less than 0.5 mg/L)
  MIC of Ertapenem: X (MIC of less than 0.5 mg/L)
[6]
  MIC of Biapenem: X (MIC of less than 0.5 mg/L)
  MIC of Doripenem: X (MIC of less than 0.5 mg/L)
  MIC of Ertapenem: X (MIC of less than 0.5 mg/L)
[7]
  MIC of Biapenem: X (MIC of less than 0.5 mg/L)
  MIC of Doripenem: X (MIC of less than 0.5 mg/L)
  MIC of Ertapenem: X (MIC of less than 0.5 mg/L)
[8]
  MIC of Biapenem: X (MIC of less than 0.5 mg/L)
  MIC of Doripenem: X (MIC of less than 0.5 mg/L)
  MIC of Ertapenem: X (MIC of less than 0.5 mg/L)
[9]
  MIC of Biapenem: X (MIC of less than 0.5 mg/L)
  MIC of Doripenem: X (MIC of less than 0.5 mg/L)
  MIC of Ertapenem: X (MIC of less than 0.5 mg/L)
[10]
  MIC of Doripenem: X (MIC of less than 0.5 mg/L)
  MIC of Ertapenem: X (MIC of less than 0.5 mg/L)
[11]
  MIC of Doripenem: Y (MIC of 0.5 mg/L to 4 mg/L)
  MIC of Ertapenem: Y (MIC of 0.5 mg/L to 4 mg/L)
Klebsiella pneumoniae KP1084, KPC-3, SHV-11, TEM-1, Compound 5 0.31 mg/L
  MIC of Ertapenem: Z (MIC of greater than 4 mg/L)
Klebsiella pneumoniae KP1084, KPC-3, SHV-11, TEM-1, Compound 5 0.625 mg/L
  MIC of Ertapenem: Z (MIC of greater than 4 mg/L)
[12]
  MIC of Biapenem: X (MIC of less than 0.5 mg/L)
  MIC of Doripenem: Y (MIC of 0.5 mg/L to 4 mg/L)
  MIC of Ertapenem: Y (MIC of 0.5 mg/L to 4 mg/L)
[13]
  MIC of Biapenem: X (MIC of less than 0.5 mg/L)
  MIC of Doripenem: X (MIC of less than 0.5 mg/L)
  MIC of Ertapenem: Y (MIC of 0.5 mg/L to 4 mg/L)
Klebsiella pneumoniae KP1084, KPC-3, SHV-11, TEM-1, Compound 5 […]
  MIC of Ertapenem: Z (MIC of greater than 4 mg/L)
[14]
  MIC of Biapenem: Z (MIC of greater than 4 mg/L)
  MIC of Doripenem: Z (MIC of greater than 4 mg/L)
  MIC of Ertapenem: Z (MIC of greater than 4 mg/L)
[15]
  MIC of Biapenem: Z (MIC of greater than 4 mg/L)
  MIC of Doripenem: Z (MIC of greater than 4 mg/L)
  MIC of Ertapenem: Z (MIC of greater than 4 mg/L)
[16]
  MIC of Biapenem: X (MIC of less than 0.5 mg/L)
  MIC of Doripenem: Y (MIC of 0.5 mg/L to 4 mg/L)
  MIC of Ertapenem: Y (MIC of 0.5 mg/L to 4 mg/L)
[17]
  MIC of Biapenem: X (MIC of less than 0.5 mg/L)
  MIC of Doripenem: X (MIC of less than 0.5 mg/L)
  MIC of Ertapenem: Y (MIC of 0.5 mg/L to 4 mg/L)
Klebsiella pneumoniae KP 1087, KPC-2, CTX-M-15, SHV-11, TEM-1, Compound 5 […]
  MIC of Ertapenem: Z (MIC of greater than 4 mg/L)
[18]
  MIC of Biapenem: X (MIC of less than 0.5 mg/L)
  MIC of Doripenem: Y (MIC of 0.5 mg/L to 4 mg/L)
  MIC of Ertapenem: Y (MIC of 0.5 mg/L to 4 mg/L)
[19]
  MIC of Biapenem: X (MIC of less than 0.5 mg/L)
  MIC of Doripenem: X (MIC of less than 0.5 mg/L)
  MIC of Ertapenem: X (MIC of less than 0.5 mg/L)
[20]
  MIC of Biapenem: X (MIC of less than 0.5 mg/L)
  MIC of Doripenem: X (MIC of less than 0.5 mg/L)
  MIC of Ertapenem: X (MIC of less than 0.5 mg/L)
[21]
  MIC of Biapenem: X (MIC of less than 0.5 mg/L)
  MIC of Doripenem: X (MIC of less than 0.5 mg/L)
  MIC of Ertapenem: X (MIC of less than 0.5 mg/L)
